According to US4833136A, “Pharmaceutically useful pyrazolo[4,3-b]pyridines” (Beecham Group p.l.c., priority 1986, dated 1989):

Tests used:
[1] = system: mouse sensitized to oxazolone; assay: Mouse oxazolone screen: topical anti-inflammatory activity in the mouse sensitized to oxazolone; format: in vivo; settings: oxazolone challenge 100 μg/ear, ears weighed 24 hours later
Experimental: Compounds were tested for topical anti-inflammatory activity in a screen using the mouse sensitized to oxazolone, by a method modified from that of Dietrich and Hess [Int. Arch. Allergy, 38, 246 (1970)].
Mice were sensitized with oxazolone (2 mg in 20 μl EtOH) on a shaved area of the abdomen. 5 days later, the animals received 10 μl THF/MeOH (1:1 v/v) on the right ear and the test compound in the same solvent on the left ear. 1 hour later, the animals were challenged with 100 μg oxazolone in 10 μl acetone on each ear. Ear weights were measured 24 hours later. Percentage inhibition of the inflammatory swelling refers to the increase in weight of left ears (oxazolone plus compound in THF/MeOH) compared to untreated negative controls, as a proportion of the increase in weight of right ears (oxazolone plus THF/MeOH) only similar controls.

cantharidin mouse ear = assay: Mouse cantharidin screen: topical anti-inflammatory activity, cantharidin mouse ear; format: in vivo; settings: cantharidin 25 μg/ear, ears weighed after 24 hours
Experimental: Compounds were tested for topical anti-inflammatory activity in a cantharidin mouse ear screen, modified from Swingle, Reiter and Schwartzmiller [Arch. int. Pharmacodyn. 254, 168-176, 1976].
25 μg cantharidin (in 10 μl THF) was applied to both ears. Compound, in the same solvent, was applied at the same time, to the left ear only. Ears were weighed after 24 hours. Percentage inhibition of the acute inflammatory swelling refers to the increase in weight of left ears (cantharidin plus compound) compared to solvent-treated negative controls, as a proportion of the increase in weight of right ears (cantharidin alone) over similar controls.

[2] = dose 200 μg/ear 1 hour before challenge

Cc1cc(NCCO)c2[nH]nc(Br)c2n1 [Compound 1, 3-Bromo-7-(2-hydroxyethylamino)-5-methyl-1H-pyrazolo-[4,3-b]pyridine]
% Inhibition of the inflammatory swelling [1, 2]: 22%

Cc1cc(NCCO)c2[nH]nc(-c3ccc(Cl)cc3)c2n1 [Compound 6, 3-(4-Chlorophenyl)-7-(2-hydroxyethylamino)-5-methyl-1H-pyrazolo[4,3-b]pyridine]
% Inhibition of the acute inflammatory swelling (cantharidin mouse ear; dose 200 μg/ear): 68% | % Inhibition of the inflammatory swelling [1, 2]: 31%

Cc1cc(NCCO)c2nn(-c3ccccc3)c(C)c2n1 [Compound 13, 7-(2-Hydroxyethylamino)-3,5-dimethyl-2-phenylpyrazolo[4,3-b]pyridine]
% Inhibition of the acute inflammatory swelling (cantharidin mouse ear; dose 200 μg/ear): 43%

C=CCNc1cc(C)nc2c(C)n[nH]c12 [Compound 4, 7-Allylamino-3,5-dimethyl-1H-pyrazolo[4,3-b]pyridine]
% Inhibition of the acute inflammatory swelling (cantharidin mouse ear; dose 200 μg/ear): 83%

Cc1cc(NCCO)c2[nH]nc(-c3ccccc3)c2n1 [Compound 3, 7-(2-Hydroxyethylamino)-5-methyl-3-phenyl-1H-pyrazolo[4,3-b]pyridine]
% Inhibition of the acute inflammatory swelling (cantharidin mouse ear; dose 500 μg/ear): 98% | % Inhibition of the inflammatory swelling ([1]; dose 500 μg/ear 1 hour before challenge): 52%

Cc1cc(NCC(C)C)c2[nH]nc(-c3ccccc3)c2n1 [Compound 7, 7-Isobutylamino-5-methyl-3-phenyl-1H-pyrazolo[4,3-b]pyridine]
% Inhibition of the acute inflammatory swelling (cantharidin mouse ear; dose 500 μg/ear): 39%

Cc1cc(NCCO)c2[nH]nc(C)c2n1 [Compound 2, 7-(2-Hydroxyethylamino)-3,5-dimethyl-1H-pyrazolo[4,3-b]pyridine]
% Inhibition of the acute inflammatory swelling (cantharidin mouse ear; dose 500 μg/ear): 86% | % Inhibition of the inflammatory swelling [1, 2]: 52%

C=CCNc1cc(C)nc2c(-c3ccccc3)n[nH]c12 [Compound 5, 7-Allylamino-5-methyl-3-phenyl-1H-pyrazolo[4,3-b]pyridine]
% Inhibition of the acute inflammatory swelling (cantharidin mouse ear; dose 500 μg/ear): 90%
